The values below come from patent US20240376097A1, “BCL-2 Inhibitor” (BeiGene Ltd., priority 2020, published 2024).

Molecules are shown by their SMILES. Read-outs that look alike come from different tables or passages of the source.

Assay [1] has as its target recombinant human Bcl-2-G101V protein (Homo sapiens (Human), UniProt P10415, G101V). The assay can be described thus: Bcl-2-G101V TR-FRET Assay. The class given is binding. As to conditions: Bcl-2 G101V mutant, TR-FRET; read-out: Biochemical assay (IC50, nM) Bcl-2 G101V. The method in brief: (§1)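 TR-FRET read at excitation 337 nm with emission at 490 nm and 520 nm. Inhibition of Bcl-2-G101V binding to its ligand across increasing compound concentrations was calculated from the 490/520 nm fluorescence ratio, and IC50 values came from four-parameter logistic fits.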

In assay [2] the test system is recombinant human Bcl-2-G101V protein. In words: Bcl-2-G101V TR-FRET Assay. The class given is binding. As to conditions: ratio of biochemical IC50 Bcl-2 G101V / Bcl-2 WT. In short, it runs like this: as §1
In general terms: Time-resolved FRET reads energy transfer from a long-lived donor to a nearby acceptor.

In assay [3] the test system is RS4;11 (BCL-2 dependent acute lymphoblastic leukemia cell line). In words: RS4;11 Cell Proliferation Assay. As to conditions: Homo sapiens, RS4-11, RS4;11 cells, read-out: Cellular proliferation assay (IC50, nM) RS4. The class given is cell-based. In short, it runs like this: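 RS4;11 cells, 50,000 per well in RPMI-1640 with 10% FBS, treated 48 h at 37 °C with a 10-point dilution series topping at 1 μM. Viability read by CellTiter-Glo ATP luminescence; mean IC50 reported.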

Assay [4] deals with recombinant human Bcl-2 D103Y protein (Homo sapiens (Human), UniProt P10415, D103Y). The assay can be described thus: Bcl-2-D103Y Biochemical Assay (TR-FRET). As to conditions: for IC50: TR-FRET, FITC labeled Bak peptide; for Ratio of Bcl-2 D103Y/Bcl-2 WT: ratio of IC50. The format is binding. The method in brief: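 Recombinant human Bcl-2 D103Y binding to its ligand measured by TR-FRET (ex 337 nm, em 490/520 nm) with increasing compound concentrations. Percent inhibition from the 490/520 nm ratio; IC50 from four-parameter logistic fit.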

The target in assay [5] is Recombinant human Bcl-2 protein (Homo sapiens (Human), UniProt P10415). In words: Bcl-2 TR-FRET Assay. The class given is binding. In short, it runs like this:
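0.05 nM Bcl-2 pre-incubated 0.5 h at room temperature with 10-point compound dilutions (top final 1, 0.1, 0.02 or 0.01 uM) in 20 mM potassium phosphate pH 7.5, 50 mM NaCl, 1 mM EDTA, 0.05% Tween-20, 0.01% BSA; FITC-Bak peptide (0.5 nM) and anti-6His Tb cryptate added, 1 h. IC50 from four-parameter logistic fit.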

Assay [6] concerns BCL-2 G101V knock-in cell line H96 (derive from RS4;11). The assay can be described thus: Bcl 2-G101V Knock-In RS4;11 Cell Proliferation Assay. The format is cell-based. As to conditions: Homo sapiens, RS4;11 Bcl-2 G101V knock-in clone H96, 48 hrs, CellTiter-GLO, read-out: Cellular proliferation assay (IC50, nM) RS4. In short, it runs like this:
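H96, a CRISPR-generated RS4;11 clone carrying BCL2-G101V knock-in (WES/RNA-seq validated), seeded 50,000 per well and exposed 48 h at 37 °C to 10-point dilutions topping at 1 or 10 μM. Viability by CellTiter-Glo luminescence; mean IC50.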
A general note: ATP-based viability assays read luminescence as a measure of living cells.

Setting [7] is: Bcl-2 wild type, TR-FRET, read-out: Biochemical assay (IC50, nM) Bcl-2 WT.
[8] abbreviates: wild type Bcl-2, unit inferred, read-out: Bcl-2 WT.

`COc1ccc(CN2CCN(C3CC4(CCN(c5ccc(C(=O)NS(=O)(=O)c6ccc(NC[C@H]7CC[C@](C)(O)CC7)c([N+](=O)[O-])c6)c(Oc6cnc7[nH]ccc7c6)c5)CC4)C3)C(c3ccccc3C(C)C)C2)cc1C#N` (stereo partly drawn) [Example 132, 2-((1H-pyrrolo[2,3-b]pyridin-5-yl)oxy)-4-(2-(4-(3-cyano-4-methoxybenzyl)-2-(2-isopropylphenyl)piperazin-1-yl)-7-azaspiro[3.5]nonan-7-yl)-N-((4-((((1r,4r)-4-hydroxy-4-methylcyclohexyl)methyl)amino)-3-nitrophenyl)sulfonyl)benzamide]: the IC50 in assay [1] was 0.92 nM; in assay [3], 0.31 nM; in assay [4] it was 0.47 nM; in assay [5] (setting [7]), 0.26 nM; in assay [5] (setting [8]), 0.26 nM; in assay [6], 2.05 nM. In assay [2], the “Ratio of Bcl-2 G101V/WT” value was found to be 3.5. The “Ratio of Bcl-2 D103Y/Bcl-2 WT” value in assay [4] is on record as 1.3.
With `COc1ccc(CN2CCN(C3CC4(CCN(c5ccc(C(=O)NS(=O)(=O)c6ccc(NC[C@H]7CC[C@](C)(O)CC7)c([N+](=O)[O-])c6)c(Oc6cnc7[nH]ccc7c6)c5)CC4)C3)C(c3ccccc3C(C)C)C2)cc1F` (stereo partly drawn) [Example 134, 2-((1H-pyrrolo[2,3-b]pyridin-5-yl)oxy)-4-(2-(4-(3-fluoro-4-methoxybenzyl)-2-(2-isopropylphenyl)piperazin-1-yl)-7-azaspiro[3.5]nonan-7-yl)-N-((4-((((1r,4r)-4-hydroxy-4-methylcyclohexyl)methyl)amino)-3-nitrophenyl)sulfonyl)benzamide], the IC50 is 1.3 nM in assay [1]; 0.4 nM in assay [3]; 0.67 nM in assay [4]; 0.35 nM in assay [5] (setting [7]); 0.35 nM in assay [5] (setting [8]); 3.1 nM in assay [6]. Besides, the “Ratio of Bcl-2 G101V/WT” value in assay [2] came to 3.8. Besides, in assay [4], the “Ratio of Bcl-2 D103Y/Bcl-2 WT” value is given as 1.9.
In the case of `COc1ccc(CN2CCN(C3CC4(CCN(c5ccc(C(=O)NS(=O)(=O)c6ccc(NC[C@H]7CC[C@](C)(O)CC7)c([N+](=O)[O-])c6)c(Oc6cnc7[nH]ccc7c6)c5)CC4)C3)C(c3ccccc3C(C)C)C2)cc1C` (stereo partly drawn) [Example 144, 2-((1H-pyrrolo[2,3-b]pyridin-5-yl)oxy)-N-((4-((((1r,4r)-4-hydroxy-4-methylcyclohexyl)methyl)amino)-3-nitrophenyl)sulfonyl)-4-(2-(2-(2-isopropylphenyl)-4-(4-methoxy-3-methylbenzyl)piperazin-1-yl)-7-azaspiro[3.5]nonan-7-yl)benzamide], the IC50 in assay [1] amounted to 1.1 nM; in assay [3] it was 0.463 nM; in assay [4], 0.47 nM; in assay [5] (setting [7]), 0.26 nM; in assay [5] (setting [8]) it was 0.26 nM; in assay [6] it was 2.8 nM. In addition, the “Ratio of Bcl-2 G101V/WT” value in assay [2] stood at 4.1. Moreover, the “Ratio of Bcl-2 D103Y/Bcl-2 WT” value in assay [4] came out at 1.8.
`COc1cc(CN2CCN(C3CC4(CCN(c5ccc(C(=O)NS(=O)(=O)c6ccc(NC[C@H]7CC[C@](C)(O)CC7)c([N+](=O)[O-])c6)c(Oc6cnc7[nH]ccc7c6)c5)CC4)C3)C(c3ccccc3C(C)C)C2)cc(C)c1OC` (stereo partly drawn) [Example 158]: the IC50 in assay [1] worked out at 0.75 nM; in assay [3], 0.322 nM; in assay [4], 0.37 nM; in assay [5] (setting [7]), 0.27 nM; in assay [5] (setting [8]), 0.27 nM; in assay [6] it was 1.52 nM. The “Ratio of Bcl-2 G101V/WT” value in assay [2] is given as 2.8. Further, in assay [4], the “Ratio of Bcl-2 D103Y/Bcl-2 WT” value is recorded as 1.3.
As to `C#Cc1ccc(CN2CCN(C3CC4(CCN(c5ccc(C(=O)NS(=O)(=O)c6ccc(NC[C@H]7CC[C@](C)(O)CC7)c([N+](=O)[O-])c6)c(Oc6cnc7[nH]ccc7c6)c5)CC4)C3)C(c3ccccc3C(C)C)C2)cc1OC` (stereo partly drawn) [Example 162], the IC50 in assay [1] came to 1.5 nM; in assay [3], 0.373 nM; in assay [4] it was 0.61 nM; in assay [5] (setting [7]), 0.38 nM; in assay [5] (setting [8]) it was 0.38 nM; in assay [6] it was 2.04 nM. For the same molecule, the “Ratio of Bcl-2 G101V/WT” value in assay [2] was found to be 3.8. The “Ratio of Bcl-2 D103Y/Bcl-2 WT” value in assay [4] was found to be 1.6.
As to `COc1ccc(CN2CCN(C3CC4(C3)CN(c3ccc(C(=O)NS(=O)(=O)c5ccc(NC[C@H]6CC[C@](C)(O)CC6)c([N+](=O)[O-])c5)c(Oc5cnc6[nH]cc(Cl)c6c5)c3)C4)[C@H](c3ccccc3C(C)C)C2)cc1OC` [Example 164, 2-((3-chloro-1H-pyrrolo[2,3-b]pyridin-5-yl)oxy)-4-(6-((R)-4-(3,4-dimethoxybenzyl)-2-(2-isopropylphenyl)piperazin-1-yl)-2-azaspiro[3.3]heptan-2-yl)-N-((4-((((1r,4r)-4-hydroxy-4-methylcyclohexyl)methyl)amino)-3-nitrophenyl)sulfonyl)benzamide], the IC50 in assay [1] stood at 0.35 nM; in assay [3], 0.23 nM; in assay [4] it was 0.12 nM; in assay [5] (setting [7]) it was 0.12 nM; in assay [5] (setting [8]) it was 0.12 nM; in assay [6] it was 0.82 nM. In addition, the “Ratio of Bcl-2 G101V/WT” value in assay [2] is 3. Besides, in assay [4], the “Ratio of Bcl-2 D103Y/Bcl-2 WT” value was determined as 1.
For `COc1ccc(CN2CCN(C3CC4(CCN(c5ccc(C(=O)NS(=O)(=O)c6ccc(NC[C@H]7CC[C@](C)(O)CC7)c([N+](=O)[O-])c6)c(Oc6cnc7[nH]cc(Cl)c7c6)c5)CC4)C3)[C@H](c3ccccc3C(C)C)C2)cc1OC` [Example 174, 2-((3-chloro-1H-pyrrolo[2,3-b]pyridin-5-yl)oxy)-4-(2-((R)-4-(3,4-dimethoxybenzyl)-2-(2-isopropylphenyl)piperazin-1-yl)-7-azaspiro[3.5]nonan-7-yl)-N-((4-((((1r,4r)-4-hydroxy-4-methylcyclohexyl)methyl)amino)-3-nitrophenyl)sulfonyl)benzamide], the IC50 in assay [1] came out at 0.59 nM; in assay [3], 0.18 nM; in assay [4], 0.14 nM; in assay [5] (setting [7]) it was 0.096 nM; in assay [5] (setting [8]), 0.096 nM; in assay [6] it was 0.49 nM. The “Ratio of Bcl-2 G101V/WT” value in assay [2] is recorded as 6.1. Moreover, the “Ratio of Bcl-2 D103Y/Bcl-2 WT” value in assay [4] is 1.4.
Regarding `COc1cc(CN2CCN(C3CC4(CCN(c5ccc(C(=O)NS(=O)(=O)c6ccc(NC[C@H]7CC[C@](C)(O)CC7)c([N+](=O)[O-])c6)c(Oc6cnc7[nH]ccc7c6)c5)CC4)C3)C(c3ccccc3C(C)C)C2)cnc1OC` (stereo partly drawn) [Example 176, 2-((1H-pyrrolo[2,3-b]pyridin-5-yl)oxy)-4-(2-(4-((5,6-dimethoxypyridin-3-yl)methyl)-2-(2-isopropylphenyl)piperazin-1-yl)-7-azaspiro[3.5]nonan-7-yl)-N-((4-((((1r,4r)-4-hydroxy-4-methylcyclohexyl)methyl)amino)-3-nitrophenyl)sulfonyl)benzamide], the IC50 in assay [1] is 0.15 nM; in assay [3] it was 0.39 nM; in assay [4] it was 0.061 nM; in assay [5] (setting [7]), 0.035 nM; in assay [5] (setting [8]), 0.035 nM; in assay [6], 1 nM. In addition, the “Ratio of Bcl-2 G101V/WT” value in assay [2] is on record as 4.3. In addition, the “Ratio of Bcl-2 D103Y/Bcl-2 WT” value in assay [4] came out at 1.7.
Regarding `COc1cc(CN2CCN(C3CC4(C3)CN(c3ccc(C(=O)NS(=O)(=O)c5ccc(NC[C@H]6CC[C@](C)(O)CC6)c([N+](=O)[O-])c5)c(Oc5cnc6[nH]cc(F)c6c5)c3)C4)[C@H](c3ccccc3C(C)C)C2)ccc1F` [Example 184, 2-((3-fluoro-1H-pyrrolo[2,3-b]pyridin-5-yl)oxy)-4-(6-((R)-4-(4-fluoro-3-methoxybenzyl)-2-(2-isopropylphenyl)piperazin-1-yl)-2-azaspiro[3.3]heptan-2-yl)-N-((4-((((1r,4r)-4-hydroxy-4-methylcyclohexyl)methyl)amino)-3-nitrophenyl)sulfonyl)benzamide], the IC50 in assay [1] was 0.53 nM; in assay [3], 0.16 nM; in assay [4], 0.19 nM; in assay [5] (setting [7]), 0.19 nM; in assay [5] (setting [8]), 0.19 nM; in assay [6] it was 0.44 nM. Besides, the “Ratio of Bcl-2 G101V/WT” value in assay [2] is given as 2.9. The “Ratio of Bcl-2 D103Y/Bcl-2 WT” value in assay [4] amounted to 1.
